Source: the supplement of paper PMC13380429

How the values were obtained:
Settings in all cases: 72 h
Caco-2 [1] = assay: drug sensitivity score (DSS) for viability; higher = more toxic; extreme values may be limits of the assay
Vero E6 [2] = assay: as above
Calu-3 [3] = assay: as above
HepG2 [4] = assay: as above
U2OS [5] = assay: as above
Caco-2 [6] = assay: cell viability relative to DMSO; higher = less toxic
Vero E6 [7] = assay: as above
Calu-3 [8] = assay: as above
HepG2 [9] = assay: as above
U2OS [10] = assay: as above
Caco-2 [11] = assay: relative viability EC50 (midpoint between 100% and the lowest measured viability); higher = less toxic
Vero E6 [12] = assay: as above
Calu-3 [13] = assay: as above
HepG2 [14] = assay: as above
U2OS [15] = assay: as above

SMILES | drug sensitivity score (Caco-2 [1]) | drug sensitivity score (Vero E6 [2]) | drug sensitivity score (Calu-3 [3]) | drug sensitivity score (HepG2 [4]) | drug sensitivity score (U2OS [5]) | cell viability (Caco-2 [6]; 1 nM) [%] | cell viability (Caco-2 [6]; 10 nM) [%] | cell viability (Caco-2 [6]; 100 nM) [%] | cell viability (Caco-2 [6]; 1000 nM) [%] | cell viability (Caco-2 [6]; 10000 nM) [%] | cell viability (Vero E6 [7]; 1 nM) [%] | cell viability (Vero E6 [7]; 10 nM) [%] | cell viability (Vero E6 [7]; 100 nM) [%] | cell viability (Vero E6 [7]; 1000 nM) [%] | cell viability (Vero E6 [7]; 10000 nM) [%] | cell viability (Calu-3 [8]; 1 nM) [%] | cell viability (Calu-3 [8]; 10 nM) [%] | cell viability (Calu-3 [8]; 100 nM) [%] | cell viability (Calu-3 [8]; 1000 nM) [%] | cell viability (Calu-3 [8]; 10000 nM) [%] | cell viability (HepG2 [9]; 1 nM) [%] | cell viability (HepG2 [9]; 10 nM) [%] | cell viability (HepG2 [9]; 100 nM) [%] | cell viability (HepG2 [9]; 1000 nM) [%] | cell viability (HepG2 [9]; 10000 nM) [%] | cell viability (U2OS [10]; 1 nM) [%] | cell viability (U2OS [10]; 10 nM) [%] | cell viability (U2OS [10]; 100 nM) [%] | cell viability (U2OS [10]; 1000 nM) [%] | cell viability (U2OS [10]; 10000 nM) [%] | relative viability EC50 (Caco-2 [11]) [µM] | relative viability EC50 (Vero E6 [12]) [µM] | relative viability EC50 (Calu-3 [13]) [µM] | relative viability EC50 (HepG2 [14]) [µM] | relative viability EC50 (U2OS [15]) [µM]
CCCCOc1cc(C(=O)NCCN(CC)CC)c2ccccc2n1 [cinchocaine] | 0.3 | 0 | 0 | 0.1 | 0 | 99.9 | 95 | 103 | 94.2 | 88.1 | 103 | 104 | 97.8 | 103 | 94.1 | 96.6 | 94.4 | 97.4 | 94.3 | 92.3 | 97.2 | 107 | 102 | 94.7 | 89.2 | 100 | 98.2 | 101 | 98.1 | 101 | > 10 | > 10 | > 10 | > 10 | > 10
CN(CCOP(=O)(O)O)C(=N)N [creatinol-phosphate] | 0 | 0 | 0 | 0 | 0 | 102 | 99.5 | 93.6 | 101 | 90.7 | 103 | 97.8 | 98.4 | 104 | 97.8 | 104 | 94.2 | 105 | 92.8 | 98.5 | 88.7 | 94.6 | 101 | 105 | 92.4 | 92.5 | 95.6 | 94.7 | 93.3 | 93.4 | > 10 | > 10 | > 10 | > 10 | > 10
C[C@H]1COC2=C1C(=O)C(=O)c1c2ccc2c1CCCC2(C)C [cryptotanshinone] | 0.1 | 0 | 0 | 0 | 0 | 97.2 | 93 | 98.1 | 102 | 85.4 | 95 | 102 | 103 | 98.5 | 100 | 111 | 111 | 99.1 | 107 | 108 | 97.3 | 93.3 | 97.2 | 98.9 | 98 | 101 | 103 | 100 | 101 | 94.4 | > 10 | > 10 | > 10 | > 10 | > 10
NS(=O)(=O)c1cc2c(cc1Cl)NC(CC1CCCC1)NS2(=O)=O (stereo not given) [cyclopenthiazide] | 0 | 0 | 0 | 0 | 0 | 102 | 106 | 90.4 | 98.6 | 90.4 | 102 | 91 | 98.9 | 94.9 | 99.9 | 96.8 | 105 | 97.6 | 97.7 | 96.4 | 111 | 103 | 101 | 99.1 | 102 | 100 | 104 | 98.8 | 107 | 96.6 | > 10 | > 10 | > 10 | > 10 | > 10
Cc1c(F)cccc1NC(=O)Nc1ccc(Cl)c(S(=O)(=O)[C@H]2CCCNC2)c1O [danirixin] | 0 | 0 | 0 | 0 | 0 | 99.3 | 104 | 93.4 | 99.4 | 95.9 | 106 | 106 | 106 | 98.2 | 100 | 84.6 | 88.3 | 91.8 | 93.1 | 95.6 | 94.8 | 93.1 | 103 | 94.7 | 106 | 99 | 104 | 95.4 | 98.8 | 98.8 | > 10 | > 10 | > 10 | > 10 | > 10
COc1cc(OC)nc(O[C@H](C(=O)O)C(OC)(c2ccccc2)c2ccccc2)n1 [darusentan] | 0 | 0 | 0 | 0 | 0 | 102 | 96.9 | 97.3 | 95.1 | 102 | 96.5 | 98.8 | 97.2 | 92.3 | 98.6 | 111 | 93.3 | 99.1 | 101 | 101 | 98.2 | 98.8 | 93.6 | 95.5 | 91.3 | 97.1 | 102 | 91 | 96.9 | 94.6 | > 10 | > 10 | > 10 | > 10 | > 10
Cc1c(C(N)=O)cc([N+](=O)[O-])cc1[N+](=O)[O-] [dinitolmide] | 0 | 0 | 0 | 0 | 0 | 101 | 97.6 | 102 | 95.1 | 105 | 102 | 101 | 98.8 | 98.3 | 97.4 | 99.4 | 105 | 101 | 100 | 103 | 104 | 104 | 106 | 99.7 | 102 | 111 | 105 | 105 | 93.5 | 92.3 | > 10 | > 10 | > 10 | > 10 | > 10
Cn1c(=O)c2c(ncn2CC(O)CO)n(C)c1=O (stereo not given) [dyphylline] | 0 | 0 | 0 | 0 | 0 | 104 | 110 | 104 | 98.9 | 107 | 100 | 102 | 105 | 98.7 | 105 | 92.7 | 99.6 | 109 | 96.4 | 101 | 102 | 106 | 97.1 | 107 | 104 | 107 | 108 | 105 | 98.8 | 110 | > 10 | > 10 | > 10 | > 10 | > 10
COC(=O)CCc1ccc(OCC(O)CNC(C)C)cc1 (stereo not given) [esmolol] | 0 | 0 | 0 | 0 | 0 | 102 | 84.8 | 98.5 | 95.5 | 97.8 | 97.2 | 93.1 | 95.5 | 100 | 95.5 | 111 | 99.8 | 96.9 | 105 | 102 | 110 | 102 | 94.5 | 109 | 96.5 | 101 | 95 | 94.6 | 94.1 | 99 | > 10 | > 10 | > 10 | > 10 | > 10
CC(Cc1ccc(O)cc1)NCC(O)c1cc(O)cc(O)c1 (stereo not given) [fenoterol] | 0 | 0 | 0 | 0 | 0 | 124 | 99.3 | 103 | 92.4 | 111 | 97.6 | 108 | 96.7 | 103 | 92.1 | 103 | 114 | 105 | 95.9 | 103 | 84.4 | 92.7 | 94 | 93.8 | 82.9 | 101 | 95.1 | 96.4 | 98.5 | 98.4 | > 10 | > 10 | > 10 | > 10 | > 10
CC(C)C(=O)Oc1ccc(CO)cc1[C@H](CCN(C(C)C)C(C)C)c1ccccc1 [fesoterodine] | 0 | 0 | 0 | 3 | 0 | 91.6 | 99.1 | 103 | 98.8 | 96.5 | 100 | 99.9 | 99.2 | 104 | 92.6 | 102 | 97.3 | 90.2 | 100 | 104 | 101 | 104 | 83.7 | 90.9 | 90.7 | 105 | 95.8 | 98.2 | 99.8 | 100 | > 10 | > 10 | > 10 | > 10 | > 10
O=C(NCC1CCCCN1)c1cc(OCC(F)(F)F)ccc1OCC(F)(F)F (stereo not given) [flecainide] | 0 | 0 | 0 | 0 | 0 | 94.1 | 89.9 | 94.5 | 86 | 104 | 90 | 99.6 | 90.1 | 93.8 | 99.1 | 108 | 100 | 97.5 | 101 | 101 | 96.5 | 103 | 93.3 | 94.9 | 106 | 98.8 | 97.2 | 103 | 100 | 97.6 | > 10 | > 10 | > 10 | > 10 | > 10
CNC(=O)c1c(C)oc2cc(Oc3ncnc4cc(OC)c(OC)cc34)ccc12 [fruquintinib] | 0 | 0 | 0 | 0 | 0 | 90 | 97.4 | 97.8 | 98.9 | 94.7 | 96.1 | 93.4 | 102 | 94.5 | 91.6 | 103 | 103 | 98.7 | 107 | 98.8 | 107 | 109 | 100 | 86.5 | 103 | 102 | 104 | 102 | 102 | 90.8 | > 10 | > 10 | > 10 | > 10 | > 10
